Measurements: patent publication US20050106305A1, “Beverage compositions comprising monatin and methods of making same” (Cargill, Inc., priority 2003, published 2005)
Where two headings read alike, the source gives them in different places.

Columns and labels:
[1] = Sensory stability of monatin and aspartame at pH 2.5, 3.0, 4.0 at 40° C.; format: physicochemical; details: for Rate constant (k) of sweetness loss / half-life: pseudo-first order assumed; for SEV / Retention of Sweetness: stored 40° C., monatin ~55 ppm, aspartame 400 ppm; for half-life: phosphate/citrate buffer, read-out: Half-life (t½) of sweetness loss (converted)
Procedure: The sensory stability of monatin solutions prepared at pH 2.5, 3.0 and 4.0 and stored at 40° C. was monitored for 100 days. Loss of sweetness from these solutions was compared with the losses of sweetness from aspartame solutions prepared and stored under identical conditions.
The sensory stability of monatin (8% SEV, ˜55 ppm, synthetic blend containing approximately 96% of the 2R,4R/2S, 4S enantiometric pair and 4% of the 2R,4S/2S,4R enantiometric pair) in phosphate/citrate buffers having a pH of 2.5, 3.0, and 4.0 was examined after storage at 40° C. The stability of monatin was compared to that of aspartame (400 ppm) in the same buffers. Three sucrose reference solutions were prepared in the same phosphate/citrate buffers as the monatin and aspartame solutions. All prepared solutions were stored in the dark.
Buffer compositions: pH 2.5 Phosphoric acid (75% solution) 0.127% (w/v) Tri-sodium citrate monohydrate 0.005% (w/v) • pH 3.0 Phosphoric acid (75% solution) 0.092% (w/v) Tri-sodium citrate monohydrate 0.031% (w/v) • pH 4.0 Phosphoric acid (75% solution) 0.071% (w/v) Tri-sodium citrate monohydrate 0.047% (w/v)
The sweetness of each sweetener relative to sucrose was assessed in duplicate by a panel (n=8) of trained sensory evaluators experienced in the sweetness estimation procedure. All samples (in the same buffers) were served in duplicate at a temperature of 22° C.±1° C. Monatin (test) solutions, coded with 3 digit random number codes were presented individually to panelists, in random order. Sucrose reference standards, ranging from 4.0-10.0% (w/v) sucrose, increasing in steps of 0.5% (w/v) sucrose were also provided. Panelists were asked to estimate sweetness by comparing the sweetness of the test solution to the sucrose standards. This was carried out by taking 3 sips of the test solution, followed by a sip of water, followed by 3 sips of sucrose standard followed by a sip of water, etc. Panelists were encouraged to estimate the sweetness to one decimal place, e.g., 6.8, 8.5. A five minute rest period was imposed between evaluating the test solutions. Panelists were also asked to rinse well and eat a cracker to reduce any potential carry over effects.
If a pseudo-first order breakdown reaction is assumed, a plot of logn percentage retention versus time (logn%RTN v. t) allows estimation of the half-life (t½) and rate constant (k) of sweetness loss under any given set of conditions. In so doing, the kinetics of monatin and aspartame sweetness loss may be summarized as follows in Table 25.

[2] = Taste profiling of lemon/lime carbonates and colas; format: in vivo; details: HFCS 10%, aspartame 500 ppm, sucralose 200 ppm, blends 30.8 ppm/5.0%; for Average Score: score 1, poor-5, good, sucrose 10%
Procedure: Cola and lemon/lime beverages were prepared using the following formulations and sweetened with sucrose, HFCS (55% fructose), aspartame, sucralose, monatin (racemic mix described in Example 14), monatin/sucrose, or monatin/HFCS. One part of syrup was added to 5.5 parts carbonated water and evaluated.
Assessments were carried out ‘double blind’ by a panel of trained tasters. The sucrose-sweetened product was identified as the control and all other products randomly coded. Panelists were asked to assess the randomly coded sample relative to the control for the following attributes:
Panelists also were asked assign a score (1; poor-5; good) for the quality of the sweetener system. A summary of the comments generated together with the average score awarded is presented in Tables 12 and 13 for lemon/lime carbonates and colas, respectively. […] Blends of monatin/carbohydrate rated higher. In the cola, monatin was similar to aspartame.

[3] = Sensory evaluation of soft drinks (lemon/lime, orangeade, cola); format: in vivo; details: Cola; aspartame 550 ppm, sucralose 220 ppm, R,R monatin 45 ppm
Procedure: Beverages (cola, lemon-lime and orange) were formulated and sweetened with aspartame, sucralose or R,R monatin. Qualitative evaluation was carried out.
The term “throw” refers to dilution in water. For example, a throw of “1+4” means 1 part concentrate formulation to 4 parts water. Thus, if a concentrate formulation includes 0.021% wt/vol (i.e., 210 ppm) of R,R monatin, for example, a throw of 1+4 makes a diluted beverage containing 42 ppm (210 ppm/5) R,R monatin.
Final ready-to-drink beverages (after throw) contained sweetener concentrations as follows:
Evaluation of these soft drinks was carried out by a panel (n=6) of assessors who evaluated each set of drinks on separate tasting occasions.

[4] = cola, sucrose 10% (control), monatin 80 ppm
[5] = lemon/lime carbonate, sucrose 10% (control), monatin 67 ppm

Sweetness Retained ([1]; after 100 days storage at pH 2.5 at 40° C.): 29% | Sweetness Retained ([1]; after 100 days storage at pH 3.0 at 40° C.): 58% | Sweetness Retained ([1]; after 100 days storage at pH 4.0 at 40° C.): 78% | Rate constant (k) of sweetness loss ([1]; pH 2.5, 40° C.): 0.011 day⁻¹ | Retention of Sweetness ([1]; pH 2.5 buffer, day 1): 93.3% | Retention of Sweetness ([1]; pH 2.5 buffer, day 2): 91.2% | Retention of Sweetness ([1]; pH 2.5 buffer, day 3): 88.4% | Retention of Sweetness ([1]; pH 2.5 buffer, day 4): 85.2% | Retention of Sweetness ([1]; pH 2.5 buffer, day 7): 82.7% | Retention of Sweetness ([1]; pH 2.5 buffer, day 8): 81.4% | Retention of Sweetness ([1]; pH 2.5 buffer, day 9): 80.1% | Retention of Sweetness ([1]; pH 2.5 buffer, day 11): 78.6% | Retention of Sweetness ([1]; pH 2.5 buffer, day 50): 62.7% | Retention of Sweetness ([1]; pH 2.5 buffer, day 100): 28.6% | Rate constant (k) of sweetness loss ([1]; pH 3.0, 40° C.): 0.006 day⁻¹ | Retention of Sweetness ([1]; pH 3.0 buffer, day 1): 99.6% | Retention of Sweetness ([1]; pH 3.0 buffer, day 2): 93.2% | Retention of Sweetness ([1]; pH 3.0 buffer, day 3): 91.4% | Retention of Sweetness ([1]; pH 3.0 buffer, day 4): 91.6% | Retention of Sweetness ([1]; pH 3.0 buffer, day 7): 85.3% | Retention of Sweetness ([1]; pH 3.0 buffer, day 8): 83.8% | Retention of Sweetness ([1]; pH 3.0 buffer, day 9): 83.1% | Retention of Sweetness ([1]; pH 3.0 buffer, day 11): 83.1% | Retention of Sweetness ([1]; pH 3.0 buffer, day 50): 72.3% | Retention of Sweetness ([1]; pH 3.0 buffer, day 100): 57.9% | Rate constant (k) of sweetness loss ([1]; pH 4.0, 40° C.): 0.003 day⁻¹ | Retention of Sweetness ([1]; pH 4.0 buffer, day 3): 95.7% | Retention of Sweetness ([1]; pH 4.0 buffer, day 8): 86.8% | Retention of Sweetness ([1]; pH 4.0 buffer, day 11): 85.9% | Retention of Sweetness ([1]; pH 4.0 buffer, day 17): 82.4% | Retention of Sweetness ([1]; pH 4.0 buffer, day 24): 84.5% | Retention of Sweetness ([1]; pH 4.0 buffer, day 50): 82.9% | Retention of Sweetness ([1]; pH 4.0 buffer, day 100): 78.4% | half-life ([1]; pH 2.5, 40° C.): 65 days | half-life ([1]; pH 3.0, 40° C.): 115 days | half-life ([1]; pH 4.0, 40° C.): 230 days
Structure (SMILES): NC(CC(O)(Cc1c[nH]c2ccccc12)C(=O)O)C(=O)O (racemic) [Monatin, 2-hydroxy-2-(indol-3-ylmethyl)-4-aminoglutaric acid]
SEV ([1]; pH 2.5 buffer, day 0): 7.35 % sucrose | SEV ([1]; pH 2.5 buffer, day 1): 6.86 % sucrose | SEV ([1]; pH 2.5 buffer, day 2): 6.70 % sucrose | SEV ([1]; pH 2.5 buffer, day 3): 6.50 % sucrose | SEV ([1]; pH 2.5 buffer, day 4): 6.26 % sucrose | SEV ([1]; pH 2.5 buffer, day 7): 6.08 % sucrose | SEV ([1]; pH 2.5 buffer, day 8): 5.98 % sucrose | SEV ([1]; pH 2.5 buffer, day 9): 5.89 % sucrose | SEV ([1]; pH 2.5 buffer, day 11): 5.78 % sucrose | SEV ([1]; pH 2.5 buffer, day 50): 4.61 % sucrose | SEV ([1]; pH 2.5 buffer, day 100): 2.10 % sucrose | SEV ([1]; pH 3.0 buffer, day 0): 7.08 % sucrose | SEV ([1]; pH 3.0 buffer, day 1): 7.05 % sucrose | SEV ([1]; pH 3.0 buffer, day 2): 6.60 % sucrose | SEV ([1]; pH 3.0 buffer, day 3): 6.47 % sucrose | SEV ([1]; pH 3.0 buffer, day 4): 6.49 % sucrose | SEV ([1]; pH 3.0 buffer, day 7): 6.04 % sucrose | SEV ([1]; pH 3.0 buffer, day 8): 5.93 % sucrose | SEV ([1]; pH 3.0 buffer, day 9): 5.88 % sucrose | SEV ([1]; pH 3.0 buffer, day 11): 5.88 % sucrose | SEV ([1]; pH 3.0 buffer, day 50): 5.12 % sucrose | SEV ([1]; pH 3.0 buffer, day 100): 4.10 % sucrose | SEV ([1]; pH 4.0 buffer, day 0): 7.40 % sucrose | SEV ([1]; pH 4.0 buffer, day 3): 7.08 % sucrose | SEV ([1]; pH 4.0 buffer, day 8): 6.42 % sucrose | SEV ([1]; pH 4.0 buffer, day 11): 6.36 % sucrose | SEV ([1]; pH 4.0 buffer, day 17): 6.10 % sucrose | SEV ([1]; pH 4.0 buffer, day 24): 6.25 % sucrose | SEV ([1]; pH 4.0 buffer, day 50): 6.14 % sucrose | SEV ([1]; pH 4.0 buffer, day 100): 5.80 % sucrose | Aftertaste [2, 4]: Some lingering | Mouthfeel [2, 4]: Thinner than control. | Aftertaste [2, 5]: Quite clean, slight | Mouthfeel [2, 5]: Slightly less | Sweetness Profile [2, 5]: Slight delay in onset - | Average Score ([2]; cola, monatin 80 ppm): 2.9 | Average Score ([2]; lemon/lime carbonate, monatin 67 ppm): 4.0 | Comments (sensory evaluation) [3]: Overall, judged quite similar qualitatively
